Measurements: the supplement of paper PMC5908809

How the values were obtained:
Assay in all cases: relative IC50 (inflection point of fitted viability curve, relative to fitted max inhibition); higher = less sensitive
Conditions in all cases: 72 h
[1] = tested on: normal primary NK cells, pool 3 (3 donors) (IL-2 2.5 ng/mL)
Description: (§1)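 Drug sensitivity and resistance testing: 5 concentrations over a 10,000-fold range, 72 h at 37 °C, viability by CellTiter-Glo normalised to DMSO and benzethonium chloride controls. IC50 is the inflection point of a logistic fit (min fixed at 0, max fitted), so it is relative to the fitted maximal inhibition. Kept only where fitted max inhibition is at least 50%.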

DERL-7 (IL-2 2.5 ng/mL) = tested on: DERL-7 (IL-2 2.5 ng/mL)
Description: as §1

SNK-6 (IL-2 2.5 ng/mL) = tested on: SNK-6 (IL-2 2.5 ng/mL)
Description: as §1

IMC-1 (IL-2 20 ng/mL) = tested on: IMC-1 (IL-2 20 ng/mL)
Description: as §1

NK-92 (IL-2 2.5 ng/mL) = tested on: NK-92 (IL-2 2.5 ng/mL)
Description: as §1

NK-YS (IL-2 2.5 ng/mL) = tested on: NK-YS (IL-2 2.5 ng/mL)
Description: as §1

[2] = tested on: normal primary NK cells, pool 1 (3 donors), resting (IL-2 0 ng/mL)
Description: as §1

KAI3 (IL-2 2.5 ng/mL) = tested on: KAI3 (IL-2 2.5 ng/mL)
Description: as §1

[3] = tested on: normal primary NK cells, pool 2 (3 donors) (IL-2 2.5 ng/mL)
Description: as §1

YT (IL-2 2.5 ng/mL) = tested on: YT (IL-2 2.5 ng/mL)
Description: as §1

KHYG-1 (IL-2 2.5 ng/mL) = tested on: KHYG-1 (IL-2 2.5 ng/mL)
Description: as §1

NKL (IL-2 2.5 ng/mL) = tested on: NKL (IL-2 2.5 ng/mL)
Description: as §1

[4] = tested on: normal primary NK cells, pool 1 (3 donors) (IL-2 2.5 ng/mL)
Description: as §1

Compound	relative IC50 [1]	relative IC50 (DERL-7 (IL-2 2.5 ng/mL))	relative IC50 (SNK-6 (IL-2 2.5 ng/mL))	relative IC50 (IMC-1 (IL-2 20 ng/mL))	relative IC50 (NK-92 (IL-2 2.5 ng/mL))	relative IC50 (NK-YS (IL-2 2.5 ng/mL))	relative IC50 [2]	relative IC50 (KAI3 (IL-2 2.5 ng/mL))	relative IC50 [3]	relative IC50 (YT (IL-2 2.5 ng/mL))	relative IC50 (KHYG-1 (IL-2 2.5 ng/mL))	relative IC50 (NKL (IL-2 2.5 ng/mL))	relative IC50 [4]
COc1c(C)cnc(Cn2cnc3c(Cl)nc(N)nc32)c1C [BIIB021]	254 nM	68.4 nM	33.9 nM	150 nM	97.5 nM	79.6 nM	226 nM	54.3 nM	104 nM	98.2 nM	61.8 nM	95.7 nM	181 nM
CC(C)C[C@H](NC(=O)[C@H](Cc1ccccc1)NC(=O)c1cnccn1)B(O)O [Bortezomib]	3.62 nM	1.69 nM	2.15 nM	3.34 nM	3.32 nM	3.04 nM	4.7 nM	3.07 nM	3.28 nM	2.97 nM	2.94 nM	3.28 nM	3.62 nM
CCCCC(=O)OCC(=O)[C@]1(O)Cc2c(O)c3c(c(O)c2[C@@H](O[C@H]2C[C@H](NC(=O)C(F)(F)F)[C@H](O)[C@H](C)O2)C1)C(=O)c1c(OC)cccc1C3=O [Valrubicin]	381 nM	63.4 nM	88.1 nM	96 nM	160 nM	75.1 nM	179 nM	80.7 nM	245 nM	235 nM	164 nM	6.61 nM	256 nM
Nc1nc(Cl)nc2c1ncn2[C@H]1C[C@H](O)[C@@H](CO)O1 [Cladribine]	24.8 nM	49.7 nM	49.2 nM	86 nM	34.5 nM	245 nM	7.37 nM	75.9 nM	16.1 nM	235 nM	30.5 nM	34.2 nM	17.6 nM
Nc1ccccc1NC(=O)c1ccc(CNC(=O)OCc2cccnc2)cc1 [Entinostat]	2910 nM	1570 nM	456 nM	2330 nM	479 nM	1680 nM	582 nM	399 nM	1530 nM	2460 nM	954 nM	494 nM	1330 nM
COc1ccc(CCc2nc3cc(-c4c(C)noc4C)ccc3n2C[C@H](C)N2CCOCC2)cc1Cl [SGC-CBP30]	5310 nM	1490 nM	–	–	10200 nM	3300 nM	4340 nM	10100 nM	3830 nM	5050 nM	4750 nM	1570 nM	3540 nM
CC[C@H](NC(=O)[C@H](C)NC)C(=O)N1C[C@@H](O)C[C@H]1Cc1c(-c2[nH]c3cc(F)ccc3c2C[C@@H]2C[C@H](O)CN2C(=O)[C@H](CC)NC(=O)[C@H](C)NC)[nH]c2cc(F)ccc12 [Birinapant]	–	–	> 1000 nM	–	–	> 1000 nM	338 nM	–	278 nM	–	–	–	311 nM
COc1cc(OC2CCN(C)CC2)ccc1Nc1ncc2c(n1)n(C1CCCC1)c(=O)n2C [AZ 3146]	2660 nM	2330 nM	1870 nM	2400 nM	3770 nM	1720 nM	2250 nM	1580 nM	2410 nM	2020 nM	2060 nM	2070 nM	3160 nM
COc1cccc2c1C(=O)c1c(O)c3c(c(O)c1C2=O)C[C@@](O)(C(=O)CO)C[C@@H]3O[C@H]1C[C@H](N)[C@H](O)[C@H](C)O1 [Doxorubicin]	159 nM	32.3 nM	41.2 nM	45.3 nM	76.2 nM	29.4 nM	59.9 nM	27.2 nM	119 nM	69.6 nM	56.7 nM	4.41 nM	118 nM
C#Cc1cccc(Nc2ncnc3cc(OC)c(OCCCCCCC(=O)NO)cc23)c1 [CUDC-101]	504 nM	177 nM	276 nM	1020 nM	277 nM	889 nM	198 nM	270 nM	347 nM	267 nM	131 nM	412 nM	293 nM
Cc1ccc(NC(=O)c2ccc(CN3CCN(C)CC3)cc2)cc1Nc1nc(-c2cccnc2)cs1 [Masitinib]	3230 nM	2000 nM	4530 nM	3320 nM	3690 nM	2010 nM	3340 nM	2970 nM	3500 nM	2490 nM	2690 nM	3390 nM	3230 nM
O=C(/C=C/c1cccc(S(=O)(=O)Nc2ccccc2)c1)NO [Belinostat]	200 nM	161 nM	156 nM	173 nM	81.7 nM	182 nM	83.9 nM	82.5 nM	143 nM	213 nM	128 nM	152 nM	113 nM
COc1ccc(C2=N[C@@H](c3ccc(Cl)cc3)[C@@H](c3ccc(Cl)cc3)N2C(=O)N2CCNC(=O)C2)c(OC(C)C)c1 [Nutlin-3]	2750 nM	1470 nM	1010 nM	–	–	1090 nM	442 nM	731 nM	1960 nM	1440 nM	–	–	1490 nM
NC(=O)N1CCC(CC(=O)N2CCC([C@H]3c4ncc(Br)cc4CCc4cc(Cl)cc(Br)c43)CC2)CC1 [Lonafarnib]	1860 nM	708 nM	–	–	718 nM	450 nM	693 nM	–	1580 nM	1060 nM	492 nM	–	1660 nM
Nc1nc(F)nc2c1ncn2[C@@H]1O[C@H](CO)[C@@H](O)[C@@H]1O [Fludarabine]	1360 nM	3720 nM	–	3130 nM	1560 nM	–	491 nM	2250 nM	957 nM	–	2630 nM	895 nM	996 nM
C[C@@H](Oc1cc(-n2cnc3ccc(CN4CCN(C)CC4)cc32)sc1C(N)=O)c1ccccc1C(F)(F)F	2340 nM	27.8 nM	32.2 nM	37.1 nM	7.34 nM	90.5 nM	374 nM	187 nM	1640 nM	53 nM	17.1 nM	46 nM	1780 nM
CCCCc1nc2cc(/C=C/C(=O)NO)ccc2n1CCN(CC)CC [Pracinostat]	211 nM	168 nM	207 nM	233 nM	112 nM	189 nM	93.7 nM	69 nM	159 nM	213 nM	149 nM	76.5 nM	163 nM
CC(C)c1cc(-c2n[nH]c(=O)n2-c2ccc3c(ccn3C)c2)c(O)cc1O [Ganetespib]	9 nM	5.92 nM	28.3 nM	32.3 nM	16.8 nM	13.1 nM	6.18 nM	11.8 nM	5.41 nM	35.8 nM	27.4 nM	10.4 nM	5.67 nM
CC(C)(C)c1cnc(CSc2cnc(NC(=O)C3CCNCC3)s2)o1 [SNS-032]	102 nM	61.3 nM	74.8 nM	36.2 nM	224 nM	38.6 nM	53.4 nM	75.8 nM	54.3 nM	84.1 nM	277 nM	22.6 nM	45.8 nM
CC(C)[C@H]1C(=O)N[C@@H](CCCNC(=N)N)C(=O)NCC(=O)N[C@@H](CC(=O)O)C(=O)N[C@H](Cc2ccccc2)C(=O)N1C [Cilengitide]	> 10000 nM	–	–	> 10000 nM	> 10000 nM	–	> 10000 nM	–	> 10000 nM	> 10000 nM	> 10000 nM	> 10000 nM	> 10000 nM
Nc1ccn([C@@H]2O[C@H](CO)[C@@H](O)[C@@H]2O)c(=O)n1 [Cytarabine]	2370 nM	23 nM	193 nM	85.5 nM	96 nM	330 nM	1230 nM	50 nM	1900 nM	–	27.3 nM	67.1 nM	1440 nM
COCC[n+]1c2c(n(Cc3cnccn3)c1C)C(=O)c1ccccc1C2=O [YM155]	1330 nM	9.75 nM	32.5 nM	< 1 nM	17.8 nM	15.5 nM	209 nM	10 nM	780 nM	7.77 nM	17.1 nM	3.09 nM	691 nM
O=C(Nc1ccc(-c2ccnc(Nc3ccc(N4CCOCC4)cc3)n2)cc1)C1CCCN1 (stereo not given) [XL019]	1870 nM	1370 nM	–	3200 nM	–	–	1380 nM	1660 nM	1510 nM	–	2490 nM	658 nM	2220 nM
C=CCNC1=C2C[C@@H](C)C[C@H](OC)[C@H](O)[C@@H](C)/C=C(\C)[C@H](OC(N)=O)[C@@H](OC)/C=C\C=C(/C)C(=O)NC(=CC1=O)C2=O [Tanespimycin]	290 nM	126 nM	106 nM	291 nM	123 nM	80.2 nM	145 nM	76.3 nM	127 nM	248 nM	247 nM	59.1 nM	79.8 nM
N#CC[C@H](C1CCCC1)n1cc(-c2ncnc3[nH]ccc23)cn1 [Ruxolitinib]	80.4 nM	45.4 nM	31.1 nM	780 nM	55.7 nM	85.1 nM	–	17.1 nM	43.7 nM	142 nM	21.9 nM	15.8 nM	69 nM
CNC(=O)c1cc(Oc2ccc(NC(=O)Nc3ccc(Cl)c(C(F)(F)F)c3)c(F)c2)ccn1 [Regorafenib]	–	1190 nM	86.7 nM	–	1040 nM	1620 nM	1940 nM	3360 nM	1750 nM	1660 nM	2130 nM	1570 nM	3020 nM
C=CCc1cccc(/C=N/NC(=O)CN2CCN(Cc3ccccc3)CC2)c1O [PAC-1]	1910 nM	1980 nM	996 nM	3020 nM	845 nM	2740 nM	3350 nM	679 nM	2050 nM	1620 nM	543 nM	591 nM	2890 nM
c1ccc2c(CCNc3ccc(Nc4ccncc4)cc3)c[nH]c2c1 [Serdemetan]	1140 nM	329 nM	2980 nM	2580 nM	1790 nM	880 nM	516 nM	436 nM	1260 nM	1820 nM	1670 nM	212 nM	914 nM
COc1cc2c(NC3CCN(C(C)C)CC3)nc(N3CCC(F)(F)CC3)nc2cc1OCCCN1CCCC1 [UNC0642]	3450 nM	3160 nM	1530 nM	2450 nM	–	2440 nM	1560 nM	987 nM	3390 nM	2690 nM	–	1640 nM	1810 nM
CN1CCC(CNc2ccc3ncc(-c4cccc(OC(F)(F)F)c4)n3n2)CC1 [SGI-1776]	2520 nM	1120 nM	3220 nM	3130 nM	2480 nM	2450 nM	1580 nM	2000 nM	1590 nM	2540 nM	2210 nM	1780 nM	2200 nM
